For 1 compound, T/C % results are on record in patent US8143025B2, “Antibodies against vascular endothelial growth factor receptor-1” (ImClone LLC, priority 2004, dated 2012).

The experiment has as its system MDA-MB-435 xenograft. Description: MDA-MB-435 breast tumor xenograft. It counts as in vivo, mouse. The settings on record: MDA-MB-435 model, differences did not reach statistical significance. On the procedure: Athymic nude mice (Charles River Laboratories, Wilmington, Mass.) were injected subcutaneously in the left flank area with 2×10^6 of DU4475 cells or 5×10^6 of MDA-MB-231 and MDA-MB-435 cells mixed in Matrigel (Collaborative Research Biochemicals. Bedford, Mass.). In the DU4475 and MDA-MB-231 models, tumors were allowed to reach approximately 200 mm^3 in size and then mice were randomized into groups of 12-16 animals per group. Animals received i.p. administration of the anti-VEGFR-I antibody clones 6F9, 15F11, or 18F1 at a dose of 0.5 mg (MDA-MB-231) or 1 mg (DU4475) three times each week. In the MDA-MB-435 model, the tumor cells were implanted subcutaneously into mammary fat pad area in the mouse. After tumors grew to reach approximately 200 mm^3 in size, mice were randomized into groups of 15 animals per group and intraperitoneally administered with 0.5 mg per dose of 18F1 antibody three times each week. Mice in control groups received an equal volume of saline solution. Treatment of animals was continued for the duration of the experiment. Tumors were measured twice each week with calipers. Tumor volumes were calculated using the formula [π/6 (w1×w2×w2)], where “w1” represents the largest tumor diameter and “w2” represents the smallest tumor diameter. […] Tumor growth was evaluated approximately twice weekly, with tumor volume calculated as π/6* (Length*Width^2), where Length=longest diameter and Width=diameter perpendicular to Length. Tumor dimensions were measured with calipers. T/C % was calculated as 100*(Final Treatment Tumor Volume/Initial Treatment Tumor Volume)/(Final Control Tumor Volume/Initial Control Tumor Volume). […] The effect of treatment on tumor growth was analyzed using repeated measures analysis of variance (RM ANOVA), p<0.05 was considered significant. […] AU treatments were administered i.p. The effect of treatments on tumor growth were analyzed using repeated measures analysis of variance (RM ANOVA), p<0.05 was considered significant.

Consider `O=P1(N(CCCl)CCCl)NCCCO1` (stereo not shown) [cyclophosphamide, reference compound], for which the T/C % is recorded as 65%.
